# Tested on: hepatocytes
# Assay: Seq-Well scRNA-Seq of hepatocytes after APAP overdose (signature scores, DEG vs untreated)
# Format: in vivo, mouse
# Conditions: A24 vs untreated (UT)
smiles,measurement,value
"CC(=O)Nc1ccc(O)cc1 [APAP, acetaminophen]",avg_logFC Ces3a,−0.3687
same,avg_logFC Ces1d,−0.4289
same,avg_logFC Cfh,0.4009
same,avg_logFC Cfi,0.2516
same,avg_logFC Chchd2,−0.3949
same,avg_logFC Clpx,−0.4047
same,avg_logFC Cltc,0.4381
same,avg_logFC Cmah,0.3616
same,avg_logFC Cmbl,−0.3124
same,avg_logFC Cml1,−0.3269
same,avg_logFC Cml2,0.2654
same,avg_logFC Copa,0.3451
same,avg_logFC Cox4i1,−0.4542
same,avg_logFC Cox5b,−0.3378
same,avg_logFC Cox6c,−0.5028
same,avg_logFC Cox7a2,−0.3635
same,avg_logFC Cp,0.3174
same,avg_logFC Cpb2,0.3222
same,avg_logFC Cps1,0.3245
same,avg_logFC Creld2,0.6087
same,avg_logFC Csad,−0.5313
same,avg_logFC Csde1,0.3269
same,avg_logFC Cth,−0.5109
same,avg_logFC Ctsc,0.3004
same,avg_logFC Cxcl1,0.4498
same,avg_logFC Cyb5,−0.7048
same,avg_logFC Cyb5r3,0.339
same,avg_logFC Cyp4a10,−0.7422
same,avg_logFC Dcxr,−0.4107
same,avg_logFC Ddt,−0.4224
same,avg_logFC Dhcr24,0.4238
same,avg_logFC Dnajc3,0.4564
same,avg_logFC Dnajc12,0.3221
same,avg_logFC Dstn,0.3243
same,avg_logFC Ech1,−0.4291
same,avg_logFC Eef1a1,0.4393
same,avg_logFC Eef2,0.2701
same,avg_logFC Efna1,0.3361
same,avg_logFC Egfr,0.505
same,avg_logFC Eif4g1,0.3108
same,avg_logFC Eif4g2,0.466
same,avg_logFC Elovl2,0.4522
same,avg_logFC Elovl3,−0.676
same,avg_logFC Ephx2,−0.3693
same,avg_logFC Etnk1,0.3521
same,avg_logFC Etnppl,−0.4283
same,avg_logFC Fabp2,−0.3922
same,avg_logFC Fdx1,−0.3447
same,avg_logFC Fga,0.8285
same,avg_logFC Fgb,0.745
same,avg_logFC Fgg,0.6805
same,avg_logFC Fgl1,0.8649
same,avg_logFC Fn1,0.6996
same,avg_logFC Fndc3b,0.3485
same,avg_logFC Fos,0.432
same,avg_logFC Fxyd1,−0.3118
same,avg_logFC Gadd45g,−0.614
same,avg_logFC Gas5,−0.3362
same,avg_logFC Gchfr,−0.3869
same,avg_logFC Gjb2,0.3911
same,avg_logFC Glud1,0.451
same,avg_logFC Gm4076,−0.3255
same,avg_logFC Gm5096,−0.3631
same,avg_logFC Gm13775,−1.032
same,avg_logFC Gm15564,1.821
same,avg_logFC Gm24270,0.268
same,avg_logFC Gm24601,0.9844
same,avg_logFC Gm26917,0.8237
same,avg_logFC Gm26924,1.419
same,avg_logFC Gnmt,−0.4604
same,avg_logFC Gpx1,−0.508
same,avg_logFC Grip2,0.8779
same,avg_logFC Gsta3,−0.6694
same,avg_logFC Hamp,−0.8261
same,avg_logFC Hao1,0.323
same,avg_logFC Hbb-bs,1.043
same,avg_logFC Hc,0.3679
same,avg_logFC Hdlbp,0.5651
same,avg_logFC Hint1,−0.4737
same,avg_logFC Hint2,−0.3702
same,avg_logFC Hmgcs2,−0.3173
same,avg_logFC Hnf4a,0.4549
same,avg_logFC Hook1,0.3274
same,avg_logFC Hp,0.4313
same,avg_logFC Hpd,−0.3133
same,avg_logFC Hs3st3b1,0.343
same,avg_logFC Hsd3b7,−0.3953
same,avg_logFC Hsp90b1,0.5342
same,avg_logFC Hspa5,0.6105
same,avg_logFC Hspa8,−0.36
same,avg_logFC Hspa13,0.3548
same,avg_logFC Hyou1,0.8465
same,avg_logFC Ibtk,0.3311
same,avg_logFC Igfbp1,−0.3162
same,avg_logFC Igfbp2,−0.3451
same,avg_logFC Iigp1,0.4542
same,avg_logFC Il6st,0.3335
same,avg_logFC Il13ra1,0.303
same,avg_logFC Inmt,−0.4435
same,avg_logFC Insig1,0.4655
same,avg_logFC Ipo7,0.2592
same,avg_logFC Itih2,0.2987
same,avg_logFC Itih3,0.4929
same,avg_logFC Itih4,0.5251
same,avg_logFC Khk,−0.2976
same,avg_logFC Kmo,0.3022
same,avg_logFC Kng1,0.2658
same,avg_logFC Lars2,1.711
same,avg_logFC Lman1,0.2986
same,avg_logFC Lpgat1,0.3946
same,avg_logFC Lrg1,0.4368
same,avg_logFC Lrp1,0.5051
same,avg_logFC Lrrc59,0.3181
same,avg_logFC Manf,0.4689
same,avg_logFC Mlec,0.3246
same,avg_logFC Mpc1,−0.2818
same,avg_logFC Mtus1,0.3621
same,avg_logFC Mug2,0.3704
same,avg_logFC Mup3,−0.8062
same,avg_logFC Mup4,−1.087
same,avg_logFC Mup5,−1.371
same,avg_logFC Mup6,−1.678
same,avg_logFC Mup8,−0.6133
same,avg_logFC Mup9,−1.847
same,avg_logFC Mup11,−1.611
same,avg_logFC Mup13,−0.6949
same,avg_logFC Mup15,−1.235
same,avg_logFC Mup16,−1.019
same,avg_logFC Mup17,−1.8
same,avg_logFC Mup18,−1.727
same,avg_logFC Mup19,−1.699
same,avg_logFC Mup20,−0.2819
same,avg_logFC Mup21,−0.6977
same,avg_logFC Myh9,0.6391
same,avg_logFC Nab1,0.3342
same,avg_logFC Nars,0.3532
same,avg_logFC Ndufa4,−0.4433
same,avg_logFC Ndufb2,−0.3412
same,avg_logFC Ndufb4,−0.3251
same,avg_logFC Ndufb11,−0.4275
same,avg_logFC Ndufs6,−0.3592
same,avg_logFC Nedd4,0.3774
same,avg_logFC Nr1d2,0.4306
same,avg_logFC Nr5a2,0.322
same,avg_logFC Oat,−0.5212
same,avg_logFC Oaz1,−0.3748
same,avg_logFC Orm1,0.3651
same,avg_logFC Orm2,0.2715
same,avg_logFC P4hb,0.4052
same,avg_logFC Pdcd4,0.4882
same,avg_logFC Pdia3,0.5938
same,avg_logFC Pdia4,0.4882
same,avg_logFC Pdia6,0.3365
same,avg_logFC Pgrmc1,0.3502
same,avg_logFC Plg,0.2617
same,avg_logFC Pon1,−0.3227
same,avg_logFC Prdx1,−0.2677
same,avg_logFC Prg4,0.4306
same,avg_logFC Prkd3,0.3665
same,avg_logFC Pten,0.3559
same,avg_logFC Pzp,0.416
same,avg_logFC Qsox1,0.3424
same,avg_logFC Rab1,0.3526
same,avg_logFC Rdh7,−0.269
same,avg_logFC Rdx,0.3736
same,avg_logFC Retsat,−0.3658
same,avg_logFC Rnase4,0.5178
same,avg_logFC Rpn1,0.4124
same,avg_logFC Rps2,−0.3845
same,avg_logFC Rps27l,−0.5485
same,avg_logFC Rrbp1,0.3069
same,avg_logFC Rsp14,−0.2923
same,avg_logFC S100a1,−0.3762
same,avg_logFC Saa1,0.5582
same,avg_logFC Saa2,0.9645
same,avg_logFC Saa4,0.3755
same,avg_logFC Sar1b,−0.3176
same,avg_logFC Sc5d,0.345
same,avg_logFC Scd1,0.7267
same,avg_logFC Sds,−0.407
same,avg_logFC Sec61a1,0.3139
same,avg_logFC Sel1l,0.336
same,avg_logFC Selenbp2,−0.3833
same,avg_logFC Sephs2,0.89
same,avg_logFC Sepp1,0.4486
same,avg_logFC Serp1,0.3124
same,avg_logFC Serpina1a,−0.6752
same,avg_logFC Serpina1b,−0.3018
same,avg_logFC Serpina1c,−0.4026
same,avg_logFC Serpina1e,−0.2843
same,avg_logFC Serpina3c,−0.4089
same,avg_logFC Serpina3n,0.4137
same,avg_logFC Serpina10,0.565
same,avg_logFC Serpina1d,−0.494
same,avg_logFC Slc3a1,0.341
same,avg_logFC Slc7a2,0.3526
same,avg_logFC Slc38a4,0.2637
same,avg_logFC Snord118,0.3914
same,avg_logFC Sod1,−0.3036
same,avg_logFC Sparcl1,−0.2536
same,avg_logFC Spcs3,0.3942
same,avg_logFC Ssr1,0.3278

# Reference: patent US20230053540A1, “TREATMENT OF LIVER INJURY” (Massachusetts Institute of Technology, priority 2019, published 2023)
